Here are results for 5 compounds from patent US11512224B2, “Water-based coating composition and production method of the same” (TOYOTA JIDOSHA KABUSHIKI KAISHA, priority 2018, dated 2022).

The nature of this data set: Solubility in water at 20° C. Particulars: for Solubility of curing catalyst in water: under atmospheric pressure at 20° C.; for Solubility of organic solvent in water: 20° C.

Consider `C1CN=C2CCCN2C1` [DBN, diazabicyclononene], for which the “Solubility of curing catalyst in water” value is 5 or greater g/100 ml. For the same compound, the “Solubility of curing catalyst in water” value (listed as diazabicyclononene) is listed as at least 0.5 g/100 ml.

Take `C1CCC2=NCCCN2CC1.Cc1ccc(S(=O)(=O)O)cc1` [DBU salt, diazabicycloundecene p-toluenesulfonate]: the “Solubility of curing catalyst in water” value by setting is: (listed as diazabicycloundecene p-toluenesulfonate, p-toluenesulfonate) at least 0.5 g/100 ml; (p-toluenesulfonate) 5 or greater g/100 ml.

With `C1CCC2=NCCCN2CC1` [DBU, diazabicycloundecene], the “Solubility of curing catalyst in water” value is 5 or greater g/100 ml. Also, the “Solubility of curing catalyst in water” value (listed as diazabicycloundecene) is reported as at least 0.5 g/100 ml.

`CC(C)O` [IPA, 2-propanol]: the “Solubility of organic solvent in water” value is ≥ 10 or g/100 ml. Besides, the “Solubility of organic solvent in water” value (listed as 2-propanol) is at least 10 g/100 ml.

Regarding `COCC(C)O` (stereo not shown) [PGME, 1-methoxy-2-propanol], the “Solubility of organic solvent in water” value is given as ≥ 10 or g/100 ml. Moreover, the “Solubility of organic solvent in water” value (listed as 1-methoxy-2-propanol) is given as at least 10 g/100 ml.
